Assay [1] can be described thus: Anticancer activity against human HuH7 cells assessed as inhibition of cell growth at 10 uM incubated for 4 days by CCK8 assay. The class given is functional. The following applies: Huh-7, 96 h, read-out: GI.
A further assay concerns A549. Put plainly: Anticancer activity against human A549 cells assessed as inhibition of cell growth at 10 uM incubated for 4 days by CCK8 assay. The class given is functional. Particulars: A549, 96 h, read-out: GI.
Another assay has as its system P388. Put plainly: Cytotoxicity against mouse P388 cells. The following applies: read-out: ED50 (the source's name). It counts as functional.
The nature of assay [2]: Anticancer activity against human HuH7 cells assessed as inhibition of cell growth incubated for 4 days by CCK8 assay. It counts as functional, cell-based. The following applies: Huh-7, 96 h.

pEC50, pIC50: −log10 of the molar value.

By pIC50 is commonly meant the IC50 on a negative log10 scale, so that one unit is a factor of ten.

For `CCCSc1nc(N/N=C/c2ccc(O)cc2O)c2nnn([C@@H]3C[C@H](O)[C@@H](O)[C@H]3O)c2n1`, the figures for the inhibition of growth at 10 µM (in assay [1]; in the assay on A549) were 38.3% and 33%, respectively.
Take `CCCSc1nc(N/N=C/c2cccc([N+](=O)[O-])c2)c2nnn([C@@H]3C[C@H](O)[C@@H](O)[C@H]3O)c2n1`: the inhibition of growth at 10 µM is 58.5% in assay [1] and 68% in the assay on A549.
For `CCCSc1nc(N/N=C/c2cccc(O)c2)c2nnn([C@@H]3C[C@H](O)[C@@H](O)[C@H]3O)c2n1`, the inhibition of growth at 10 µM in assay [1] was found to be 36.5%; in the assay with A549, 21.4%.
For `Nc1ncnc2c1nnn2[C@@H]1C[C@H](CO)[C@H](O)[C@H]1O`, in the assay with P388, the pEC50 was 6.42.
Consider `CCCSc1nc(N/N=C/c2ccccc2OC)c2nnn([C@@H]3C[C@H](O)[C@@H](O)[C@H]3O)c2n1`, for which the inhibition of growth at 10 µM in assay [1] was 43.8%; in the assay with A549, 31.6%.
For `CCCSc1nc(N/N=C/c2ccccc2Cl)c2nnn([C@@H]3C[C@H](O)[C@@H](O)[C@H]3O)c2n1`, in that order: 37.7% and 30.5%.
`CCCSc1nc(N/N=C/c2ccc([N+](=O)[O-])cc2)c2nnn([C@@H]3C[C@H](O)[C@@H](O)[C@H]3O)c2n1`: the inhibition of growth at 10 µM in assay [1] amounted to 68%; with A549 it was 67.6%. For the same molecule, in assay [2], the pIC50 was 4.93.
Turning to `CCCSc1nc(N/N=C/c2ccc(OC)cc2)c2nnn([C@@H]3C[C@H](O)[C@@H](O)[C@H]3O)c2n1`, the inhibition of growth at 10 µM in assay [1] is 57.3%; in the assay with A549, 69.2%.
As to `CCCSc1nc(N/N=C/c2ccccc2)c2nnn([C@@H]3C[C@H](O)[C@@H](O)[C@H]3O)c2n1`, the inhibition of growth at 10 µM in assay [1] stood at 20.1%; in the assay with A549, 22.9%.
Take `CCCSc1nc(N/N=C/c2ccc(O)cc2)c2nnn([C@@H]3C[C@H](O)[C@@H](O)[C@H]3O)c2n1`: the inhibition of growth at 10 µM was 43.8% in assay [1] and 32.3% with A549.
With `CCCSc1nc(N/N=C/c2ccccn2)c2nnn([C@@H]3C[C@H](O)[C@@H](O)[C@H]3O)c2n1`, the inhibition of growth at 10 µM was found to be 52.5% in assay [1] and 38.6% in the assay with A549.
Regarding `CCCSc1nc(N/N=C/c2ccc(Cl)cc2Cl)c2nnn([C@@H]3C[C@H](O)[C@@H](O)[C@H]3O)c2n1`, the inhibition of growth at 10 µM in assay [1] came out at 51.2%; with A549, 41.6%.
For `O=c1[nH]cc(F)c(=O)[nH]1` [FLUOROURACIL], in that order: 78.7% and 64.5%.
In the same order, the values of `CCCSc1nc(N/N=C/c2ccccc2O)c2nnn([C@@H]3C[C@H](O)[C@@H](O)[C@H]3O)c2n1` are 34.5% and 24.3%.
With `CCCSc1nc(N/N=C/c2cccs2)c2nnn([C@@H]3C[C@H](O)[C@@H](O)[C@H]3O)c2n1`, the inhibition of growth at 10 µM amounted to 50% in assay [1] and 38.8% with A549.
In the same order, the values of `CCCSc1nc(N/N=C/c2ccc(F)c(F)c2)c2nnn([C@@H]3C[C@H](O)[C@@H](O)[C@H]3O)c2n1` are 31.5% and 26.9%.
For `CCCSc1nc(N/N=C/c2ccc(OC)c(OC)c2)c2nnn([C@@H]3C[C@H](O)[C@@H](O)[C@H]3O)c2n1`, in that order: 26.9% and 28.9%.
Take `CCCSc1nc(N/N=C/c2ccc(Cl)cc2)c2nnn([C@@H]3C[C@H](O)[C@@H](O)[C@H]3O)c2n1`: the inhibition of growth at 10 µM in assay [1] was determined as 47.8%; in the assay on A549, 34.2%.
